Laboratory results: patent US11395489B2, “Microbiocidal picolinamide derivatives” (Syngenta Participations AG, priority 2017, dated 2022)

Legend:
[1] = system: Phaeosphaeria Nodorum (Septoria nodorum); experiment: Phaeosphaeria nodorum (Septoria nodorum) / wheat / leaf disc preventative (Glume Blotch); type: in vivo; conditions: Parastagonospora nodorum, foliar, 200 ppm in the formulation, compared to untreated, 5-7 days after application, read-out: disease control
Procedure: Phaeosphaeria Nodorum (Septoria nodorum)/Wheat/Leaf Disc Preventative (Glume Blotch) Wheat leaf segments cv. Kanzler are placed on agar in a multiwell plate (24-well format) and sprayed with the formulated test compound diluted in water. The leaf disks are inoculated with a spore suspension of the fungus 2 days after application. The inoculated test leaf disks are incubated at 20° C. and 75% rh under a light regime of 12 h light/12 h darkness in a climate cabinet and the activity of a compound is assessed as percent disease control compared to untreated when an appropriate level of disease damage appears in untreated check leaf disks (5-7 days after application).

[2] = system: Botryotinia fuckeliana (Botrytis cinerea); experiment: Botryotinia fuckeliana (Botrytis cinerea) / liquid culture (Gray Mould); type: cell-based; conditions: 72 h, 200 ppm in the formulation, inhibition of growth determined photometrically 3-4 days after application, read-out: disease control
Procedure: (§1) Botryotinia fuckeliana (Botrytis cinerea)/Liquid Culture (Gray Mould) Conidia of the fungus from cryogenic storage are directly mixed into nutrient broth (Vogels broth). After placing a (DMSO) solution of test compound into a microtiter plate (96-well format), the nutrient broth containing the fungal spores is added. The test plates are incubated at 24° C. and the inhibition of growth is determined photometrically 3-4 days after application.

[3] = system: Mycosphaerella Raminicola (Septoria tritici); experiment: Mycosphaerella Raminicola (Septoria tritici) / liquid culture (Septoria Blotch); type: cell-based; conditions: 200 ppm in the formulation, inhibition of growth determined photometrically 4 to 5 days after application, read-out: disease control
Procedure: as §1, with “Mycosphaerella Raminicola (Septoria tritici)/Liquid” for “Botryotinia fuckeliana (Botrytis cinerea)/Liquid”, “(Septoria Blotch)” for “(Gray Mould)”, “(PDB potato dextrose” for “(Vogels”, “4 to 5” for “3-4”

[4] = system: Magnaporthe risea (Pyricularia Oryzae); experiment: whole plant or invertebrate; type: in vivo; conditions: foliar, read-out: disease control
[5] = system: Glomerella lacenarium (Colletotrichum lacenarium); experiment: Glomerella lacenarium (Colletotrichum lacenarium) / liquid culture (Anthracnose); type: cell-based; conditions: 200 ppm in the formulation, inhibition of growth measured photometrically 3-4 days after application, read-out: disease control
Procedure: as §1, with “Glomerella lacenarium (Colletotrichum lacenarium)/Liquid” for “Botryotinia fuckeliana (Botrytis cinerea)/Liquid”, “(Anthracnose)” for “(Gray Mould)”, “(PDB potato dextrose” for “(Vogels”, “measured” for “determined”

[6] = system: Mycosphaerella arachidis (Cercospora arachidicola); experiment: Mycosphaerella arachidis (Cercospora arachidicola) / liquid culture (Early Leaf Spot); type: cell-based; conditions: 96 h, 200 ppm in the formulation, inhibition of growth determined photometrically 4-5 days after application, read-out: disease control
Procedure: as §1, with “Mycosphaerella arachidis (Cercospora arachidicola)/Liquid” for “Botryotinia fuckeliana (Botrytis cinerea)/Liquid”, “(Early Leaf Spot)” for “(Gray Mould)”, “(PDB potato dextrose” for “(Vogels”, “4-5” for “3-4”

[7] = system: Puccinia recondita f. Sp. Tritici; experiment: Puccinia recondita f. sp. tritici / wheat / leaf disc preventative (Brown Rust); type: in vivo; conditions: foliar, 168 h, 200 ppm in the formulation, compared to untreated, 7-9 days after application, read-out: disease control
[8] = system: Monocraphella nivalis (Microdochium nivale); experiment: Monocraphella nivalis (Microdochium nivale) / liquid culture (Foot Rot Cereals); type: cell-based; conditions: 96 h, 200 ppm in the formulation, inhibition of growth determined photometrically 4-5 days after application, read-out: disease control
Procedure: as §1, with “Monocraphella nivalis (Microdochium nivale)/Liquid” for “Botryotinia fuckeliana (Botrytis cinerea)/Liquid”, “(Foot Rot Cereals)” for “(Gray Mould)”, “(PDB potato dextrose” for “(Vogels”, “4-5” for “3-4”

COc1ccnc(C(=O)N[C@@H](C)C(=O)OC(C)C2(c3ccccc3)CC2c2ccccc2)c1O (stereo partly drawn) [I.a.010, 1-(1,2-diphenylcyclo-propyl)ethyl (2S)-2-[(3-hydroxy-4-methoxy-pyridine-2-carbonyl)-amino]propanoate]
≥ 80%: pest or weed control at 200 ppm [1] | inhibition of growth at 200 ppm [2] | inhibition of growth at 200 ppm [3] | pest or weed control at 200 ppm [4] | inhibition of growth at 200 ppm [5] | inhibition of growth at 200 ppm [6] | pest or weed control at 200 ppm [7] | inhibition of growth at 200 ppm [8]

COc1ccnc(C(=O)N[C@@H](C)C(=O)OC(C)C2(c3ccc(Cl)cc3)CCCCC2)c1O (stereo partly drawn) [I.k.015, 1-[1-(4-chlorophenyl)-cyclohexyl]ethyl (2S)-2-[(3-hydroxy-4-methoxy-pyridine-2-carbonyl)amino]propanoate]
≥ 80%: pest or weed control at 200 ppm [1] | inhibition of growth at 200 ppm [2] | inhibition of growth at 200 ppm [3] | inhibition of growth at 200 ppm [5] | inhibition of growth at 200 ppm [6] | pest or weed control at 200 ppm [7] | inhibition of growth at 200 ppm [8]

COc1ccnc(C(=O)N[C@@H](C)C(=O)OC(C)C2(c3ccccc3)CCCCC2)c1O (stereo partly drawn) [I.a.015, 1-(1-phenylcyclohexyl)-ethyl (2S)-2-[(3-hydroxy-4-methoxy-pyridine-2-carbonyl)amino]propanoate]
≥ 80%: pest or weed control at 200 ppm [1] | inhibition of growth at 200 ppm [2] | inhibition of growth at 200 ppm [3] | inhibition of growth at 200 ppm [5] | inhibition of growth at 200 ppm [6] | pest or weed control at 200 ppm [7] | inhibition of growth at 200 ppm [8]

COc1ccnc(C(=O)N[C@@H](C)C(=O)OC(C)C2(c3ccc(Cl)cc3)CCCCC2)c1OC(C)=O (stereo partly drawn) [I.k.075, 1-[1-(4-chlorophenyl)-cyclohexyl]ethyl (2S)-2-[(3-acetoxy-4-methoxy-pyridine-2-carbonyl)-amino]propanoate]
≥ 80%: pest or weed control at 200 ppm [1] | inhibition of growth at 200 ppm [3] | pest or weed control at 200 ppm [4] | inhibition of growth at 200 ppm [5] | inhibition of growth at 200 ppm [6] | pest or weed control at 200 ppm [7]

COc1ccnc(C(=O)N[C@@H](C)C(=O)OC(C)C(C)(C)c2cc(F)ccc2F)c1O (stereo partly drawn) [I.ah.001, [2-(2,5-difluoro-phenyl)-1,2-dimethyl-propyl] (2S)-2-[(3-hydroxy-4-methoxy-pyridine-2-carbonyl)-amino]propanoate]
≥ 80%: pest or weed control at 200 ppm [1] | inhibition of growth at 200 ppm [3] | pest or weed control at 200 ppm [4] | inhibition of growth at 200 ppm [5] | inhibition of growth at 200 ppm [6] | pest or weed control at 200 ppm [7] | inhibition of growth at 200 ppm [8]

COc1ccnc(C(=O)N[C@@H](C)C(=O)OC(C)C2(c3ccc(Cl)cc3)CCC2)c1O (stereo partly drawn) [I.k.012, 1-[1-(4-chlorophenyl)-cyclobutyl]ethyl (2S)-2-((3-hydroxy-4-methoxy-pyridine-2-carbonyl)-amino]propanoate]
≥ 80%: pest or weed control at 200 ppm [1] | inhibition of growth at 200 ppm [2] | inhibition of growth at 200 ppm [3] | pest or weed control at 200 ppm [4] | inhibition of growth at 200 ppm [5] | inhibition of growth at 200 ppm [6] | pest or weed control at 200 ppm [7] | inhibition of growth at 200 ppm [8]

COc1ccnc(C(=O)N[C@@H](C)C(=O)OC(C)C2(c3cccc4ccccc34)CC2)c1OC(C)=O (stereo partly drawn) [I.v.066, 1-[1-(1-naphthyl)cyclo-propyl]ethyl (2S)-2-[(3-acetoxy-4-methoxy-pyridine-2-carbonyl)-amino]propanoate]
≥ 80%: pest or weed control at 200 ppm [1] | inhibition of growth at 200 ppm [2] | inhibition of growth at 200 ppm [3] | pest or weed control at 200 ppm [4] | inhibition of growth at 200 ppm [5] | inhibition of growth at 200 ppm [6] | pest or weed control at 200 ppm [7] | inhibition of growth at 200 ppm [8]

COc1ccnc(C(=O)N[C@@H](C)C(=O)OC(C)C(C)(C)c2ccc(Br)cc2)c1O (stereo partly drawn) [I.m.001, [2-(4-bromophenyl)-1,2-dimethyl-propyl] (2S)-2-[(3-hydroxy-4-methoxy-pyridine-2-carbonyl)amino]propanoate]
≥ 80%: pest or weed control at 200 ppm [1] | inhibition of growth at 200 ppm [2] | inhibition of growth at 200 ppm [3] | inhibition of growth at 200 ppm [5] | inhibition of growth at 200 ppm [6] | pest or weed control at 200 ppm [7] | inhibition of growth at 200 ppm [8]
